Measured values reported in patent US8614290B2, “Cancer imaging and treatment” (Technische Universitat Munchen, priority 2007, dated 2013).
Where “and” joins values, the source holds several entries; their conditions need not be identical. Identical values can stand only once. Square brackets hold non-standard residues; d marks the D form. Peptide text beside a SMILES is read from it. * marks the point of attachment. 2Nal = N[C@@H](Cc1ccc2ccccc2c1)C(=O)O; dNMeOrn = CN[C@H](CCCN)C(=O)O; X3 = NC(=O)CCCC(=O)*

Columns and labels:
human CXCR4 [1] = biological target: T1, human CXCR4 (Homo sapiens, UniProt P61073); assay: Receptor functionality: FACS staining of surface CXCR4 after pre-incubation with SDF-1α; assay type: cell-based; set-up: expressed in transfected cells; host or cells: murine CMS5 fibrosarcoma cells, retroviral vector pBulletCXCR4-IRES-eGFP
T1 sequence (P61073 whole entry): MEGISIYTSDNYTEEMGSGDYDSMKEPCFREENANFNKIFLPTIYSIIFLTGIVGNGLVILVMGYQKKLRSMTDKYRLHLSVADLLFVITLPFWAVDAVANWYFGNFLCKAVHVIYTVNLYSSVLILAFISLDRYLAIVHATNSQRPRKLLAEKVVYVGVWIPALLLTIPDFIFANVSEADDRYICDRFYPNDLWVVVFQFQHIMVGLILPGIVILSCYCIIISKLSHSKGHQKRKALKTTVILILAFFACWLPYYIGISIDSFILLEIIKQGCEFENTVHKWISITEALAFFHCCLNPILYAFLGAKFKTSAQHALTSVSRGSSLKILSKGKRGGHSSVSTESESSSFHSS
From the text: CXCR-4 staining was plotted against EGFP fluorescence (FL1).

human CXCR4 [2] = biological target: T1, human CXCR4; assay: Receptor internalization: tracer release after acidic buffer wash; assay type: cell-based; set-up: Jurkat cells that endogenously express the CXCR4 receptor; endogenous in cells; host or cells: Jurkat cells; details: after two short washing steps with acidic buffer (pH5.0)
From the text: Thereafter the tracer was mostly releasable from the receptor (>80%).

human CXCR4 [3] = biological target: T1, human CXCR4; assay: Radioligand (saturation) binding of 125I-CPCR4 on Jurkat and CMS5/CXCR4 cells; set-up: Jurkat cells that endogenously express the CXCR4 receptor; endogenous in cells; host or cells: Jurkat cells
Description: For receptor binding assays cells were resuspended in PBS/0.2% BSA. A total of 200 μl of the suspension containing 400,000 Jurkat cells were incubated with 25 μl of the tracer solution (containing 3.1 kBq, approx. 0.1 nM) and 25 μl of the diluent or the competitor at different concentrations. […] Nonspecific binding was determined in the presence of 1 μM cold cyclo(D-Tyr^1[^127I]-Arg^2-Arg^3-Nal^4-Gly^5). After shaking for 2 h at room temperature, the incubation was terminated by centrifugation at 1300 rpm for 5 min. Cell pellets were washed once with cold PBS followed by a second centrifugation step. Cell bound radioactivity was determined by using a gamma counter. Experiments were repeated 2-3 times in triplicates. IC50 values of the compounds were calculated by nonlinear regression using GraphPad Prism (GraphPad Prism 4.0 Software, Inc., San Diego, Calif., USA). Each data point is the average of three determinations.
Whereas for Jurkat cells the Bmax value was more dependent on origin and varies stronger with culture conditions, the number of binding sites (Bmax) on CMS5/CXCR4 cells was constant and better reproducible (23±6 fmol receptor protein).

CMS5/CXCR4 tumours = assay: Biodistribution of 125I-CPCR4 in CMS5 and CMS5/CXCR4 tumour bearing nude mice; assay type: in vivo; details: for accumulation in CMS5/CXCR4 tumours / accumulation in parental CMS5 (CXCR4 negative control) tumours: i.v.
Description: For animal experiments parental CMS5 cells and transduced CMS5/CXCR4 cells were injected subcutaneously in female Swiss nu/nu mice (Charles River, France). Therefore for each mouse 1.5×10^6 CMS5 cells and 2×10^6 CMS5/CXCR4 cells were resuspended in 75 μl PBS, respectively and mixed with the same volume Matrigel-Matrix HC (BD Biosciences, Heidelberg, Germany) according to the manufacturer's protocol. Subsequently cell suspension was inoculated at each shoulder, respectively. After 14-16 days of tumour growth mice were used for imaging and biodistribution purposes. All animal experiments were approved by the local authorities and are in compliance with the institutions guidelines.
The animals were sacrificed and dissected 30, 60 and 120 min after tracer injection. Organs of interest were removed and the radioactivity was measured in weighted tissue samples using the 1480 Wizard3 gamma counter from Wallac (Turku, Finland). Results are expressed as percent injected dose per gram tissue weight (% ID/g). Each value represents the mean of four to six animals.

human CXCR4 [4] = biological target: T1, human CXCR4; assay: Competitive receptor binding assay on Jurkat cells with 125I-CPCR4 as tracer; set-up: Jurkat cells that endogenously express the CXCR4 receptor; endogenous in cells; host or cells: Jurkat cells; details: Table 10, dimers and monomers; read-out: IC50
Description: For receptor binding assays cells were resuspended in PBS/0.2% BSA. A total of 200 μl of the suspension containing 400,000 Jurkat cells were incubated with 25 μl of the tracer solution (containing 3.1 kBq, approx. 0.1 nM) and 25 μl of the diluent or the competitor at different concentrations. […] After shaking for 2 h at room temperature, the incubation was terminated by centrifugation at 1300 rpm for 5 min. Cell pellets were washed once with cold PBS followed by a second centrifugation step. Cell bound radioactivity was determined by using a gamma counter. Experiments were repeated 2-3 times in triplicates. IC50 values of the compounds were calculated by nonlinear regression using GraphPad Prism (GraphPad Prism 4.0 Software, Inc., San Diego, Calif., USA). Each data point is the average of three determinations.

[5] = 60 min (1 h) post injection, listed as radiolabeled CPCR4

SDF-1α
mean fluorescence intensity, CMS5/CXCR4 cells (human CXCR4 [1]; SDF-1α treated, mock treated 209.0): 80.5
CMS5/CXCR4 cells stained positive for CXCR4 (human CXCR4 [1]; after pre-incubation with human SDF-1α 100 nM, 1 hr 37° C., control-treated […]): 54.7%

cyclo(D-Tyr^1[^125I]-Arg^2-Arg^3-Nal^4-Gly^5) [^125I-CPCR4]
tracer releasable from the receptor (human CXCR4 [2]): > 80%
specific binding (human CXCR4 [3]): > 90%
accumulation in intestine (CMS5/CXCR4 tumours; 30 min post injection): 16.0 (±4.7) % ID/g
accumulation in liver (CMS5/CXCR4 tumours; 30 min post injection): 27.7 (±4.9) % ID/g
accumulation in CMS5/CXCR4 tumours (CMS5/CXCR4 tumours; 30 min post injection): 4.7 (±1.3) % ID/g
accumulation in kidneys (CMS5/CXCR4 tumours; 60 min (1 h) post injection): 12.2 (±2.3) % ID/g
accumulation in CMS5/CXCR4 tumours (CMS5/CXCR4 tumours; 60 min (1 h) post injection): 5.5 (±1.5) % ID/g and 5.5 % ID/g
accumulation in parental CMS5 (CXCR4 negative control) tumours (CMS5/CXCR4 tumours; 60 min (1 h) post injection): 0.6 (±0.2) % ID/g
accumulation in CMS5/CXCR4 tumours (CMS5/CXCR4 tumours; [5]): 5.5±1.5 % ID/g
accumulation in parental CMS5 (CXCR4 negative control) tumours (CMS5/CXCR4 tumours; [5]): 0.6±0.2 % ID/g
accumulation in kidneys (CMS5/CXCR4 tumours; [5]): 12.2±2.3 % ID/g
tracer uptake in intestine (CMS5/CXCR4 tumours; 1 h post injection): 17.2±2.9 % ID/g
tracer uptake in liver (CMS5/CXCR4 tumours; 1 h post injection): 19.5±2.8 % ID/g
background accumulation (CMS5/CXCR4 tumours; 1 h post injection, other organs): < 1.0 % ID/g
accumulation in intestine (CMS5/CXCR4 tumours; 120 min post injection): 19.2 (±4.5) % ID/g
accumulation in kidneys (CMS5/CXCR4 tumours; 120 min post injection): 8.2 (±1.1) % ID/g
accumulation in liver (CMS5/CXCR4 tumours; 120 min post injection): 15.0 (±1.8) % ID/g
accumulation in CMS5/CXCR4 tumours (CMS5/CXCR4 tumours; 120 min post injection): 3.8 (±1.4) % ID/g
increased accumulation in CXCR4+ tumors compared to control tumors (CMS5/CXCR4 tumours; preliminary animal studies): around 10 times

CN1C(=O)[C@@H](Cc2ccc(O)cc2)NC(=O)CNC(=O)[C@H](Cc2ccc3ccccc3c2)NC(=O)[C@H](CCCNC(=N)N)NC(=O)[C@H]1CCCNC(=O)C[C@H](NC(=O)CCCCCNC(=O)CN1CCN(CC(=O)O)CCN(CC(=O)O)CCN(CC(=O)O)CC1)C(=O)NCCC[C@@H]1C(=O)N[C@@H](CCCNC(=N)N)C(=O)N[C@@H](Cc2ccc3ccccc3c2)C(=O)NCC(=O)N[C@H](Cc2ccc(O)cc2)C(=O)N1C [NMe-D-Orn DOTAAhxAsp]
IC50 (human CXCR4 [4]): 92.1 nM

CN1C(=O)[C@@H](Cc2ccc(O)cc2)NC(=O)CNC(=O)[C@H](Cc2ccc3ccccc3c2)NC(=O)[C@H](CCCNC(=N)N)NC(=O)[C@H]1CCCNC(=O)CCCC(N)=O [Monomer + Glutaric acid monoamide] (cyclo([2Nal]G[dY][dNMeOrn](X3)R))
IC50 (human CXCR4 [4]): 66.5 nM
